Test results reported in ChEMBL document CHEMBL1201862, “PubChem BioAssay data set” (2004).
“And” between values parts separate entries of the source, which are not always exact repeats. Identical values can stand only once.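 All cell lines were grown in 96-well plates and treated with compound for 48 hours. Abbreviation: GI50, concentration required for 50% inhibition of growth.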 The source made the active and inactive calls. Rule as the data show it: active = GI50 up to about 1.1 µM and inactive = higher.

Key:
Assay in all cases: DTP human tumour cell line panel, 48 h
[1] = system: RXF 393
[2] = system: Malme-3M
[3] = system: HT-29
[4] = system: SF-268
[5] = system: OVCAR-5
[6] = system: SK-MEL-5
[7] = system: HCT-15
[8] = system: NCI/ADR-RES
[9] = system: T47D
[10] = system: HOP-92
[11] = system: HOP-62
[12] = system: KM12
[13] = system: PC-3
[14] = system: UACC-62
[15] = system: RPMI-8226
[16] = system: OVCAR-4
[17] = system: SK-MEL-28
[18] = system: A549
[19] = system: HCC 2998
[20] = system: HCT-116
[21] = system: MDA-N
[22] = system: SR
[23] = system: SF-295
[24] = system: SF-539
[25] = system: BT-549
[26] = system: UO-31
[27] = system: HL-60
[28] = system: M14
[29] = system: NCI-H23
[30] = system: SNB-75
[31] = system: COLO 205
[32] = system: U-251
[33] = system: ACHN
[34] = system: UACC-257
[35] = system: LOX IMVI
[36] = system: NCI-H460
[37] = system: A498
[38] = system: SN12C
[39] = system: NCI-H226
[40] = system: SK-MEL-2
[41] = system: IGROV-1
[42] = system: 786-0
[43] = system: SK-OV-3
[44] = system: SNB-19
[45] = system: K562
[46] = system: MDA-MB-435
[47] = system: EKVX
[48] = system: MCF7
[49] = system: MOLT-4
[50] = system: CAKI-1
[51] = system: TK-10
[52] = system: NCI-H522
[53] = system: MDA-MB-231
[54] = system: OVCAR-3
[55] = system: DU-145
[56] = system: CCRF-CEM
[57] = system: OVCAR-8
[58] = system: SW-620
[59] = system: Hs-578T

## CCOP(=O)(OCC)C(Nc1cccc([N+](=O)[O-])c1)c1ccccc1 (stereo unspecified)
[1]
  GI50: 88.3 µM (inactive)
[2]
  GI50: 40.1 µM (inactive)
[3]
  GI50: 75 µM (inactive)
[4]
  GI50: > 100 µM (inactive)
[5]
  GI50: > 100 µM (inactive)
[6]
  GI50: 64.3 µM (inactive)
[7]
  GI50: 71.6 µM
[8]
  GI50: 97.1 µM (inactive)
[9]
  GI50: 18.8 µM (inactive)
[10]
  GI50: 62.4 µM (inactive)
[11]
  GI50: > 100 µM (inactive)
[12]
  GI50: > 100 µM (inactive)
[13]
  GI50: 38.6 µM (inactive)
[14]
  GI50: 58.2 µM (inactive)
[15]
  GI50: 76.7 µM (inactive)
[16]
  GI50: > 100 µM (inactive)
[17]
  GI50: > 100 µM (inactive)
[18]
  GI50: 57.1 µM (inactive)
[19]
  GI50: > 100 µM (inactive)
[20]
  GI50: 65 µM (inactive)
[21]
  GI50: > 100 µM (inactive)
[22]
  GI50: > 100 µM (inactive)
[23]
  GI50: > 100 µM (inactive)
[24]
  GI50: > 100 µM (inactive)
[25]
  GI50: > 100 µM (inactive)
[26]
  GI50: 48.8 µM (inactive)
[27]
  GI50: 39.9 µM (inactive)
[28]
  GI50: > 100 µM (inactive)
[29]
  GI50: > 100 µM (inactive)
[30]
  GI50: 71.9 µM (inactive)
[31]
  GI50: 34.6 µM (inactive)
[32]
  GI50: > 100 µM (inactive)
[33]
  GI50: > 100 µM (inactive)
[34]
  GI50: 72.1 µM (inactive)
[35]
  GI50: 73.3 µM (inactive)
[36]
  GI50: 80 µM (inactive)
[37]
  GI50: > 100 µM (inactive)
[38]
  GI50: > 100 µM (inactive)
[39]
  GI50: > 100 µM (inactive)
[40]
  GI50: 82.4 µM (inactive)
[41]
  GI50: 0.108 µM (active)
[42]
  GI50: > 100 µM (inactive)
[43]
  GI50: > 100 µM (inactive)
[44]
  GI50: > 100 µM (inactive)
[45]
  GI50: 38.2 µM (inactive)
[46]
  GI50: > 100 µM (inactive)
[47]
  GI50: 62.2 µM (inactive)
[48]
  GI50: > 100 µM (inactive)
[49]
  GI50: 39.4 µM (inactive)
[50]
  GI50: > 100 µM (inactive)
[51]
  GI50: > 100 µM (inactive)
[52]
  GI50: 90.2 µM (inactive)
[53]
  GI50: 58.9 µM (inactive)
[54]
  GI50: > 100 µM (inactive)
[55]
  GI50: > 100 µM (inactive)
[56]
  GI50: 68.1 µM (inactive)
[57]
  GI50: > 10 µM (inactive)

## O=[N+]([O-])c1ccc2c(c1)C1=C(CO2)Cc2ccccc2O1
[2]
  GI50: 26.4 µM (inactive)
[3]
  GI50: 26.2 µM (inactive)
[4]
  GI50: 21.3 µM (inactive)
[5]
  GI50: 24.5 µM (inactive)
[6]
  GI50: 15.8 µM (inactive)
[7]
  GI50: 14.3 µM
[8]
  GI50: 30.3 µM (inactive)
[9]
  GI50: 10.9 µM (inactive)
[10]
  GI50: 23.9 µM (inactive)
[11]
  GI50: 64.6 µM (inactive)
[12]
  GI50: 20.1 µM (inactive)
[13]
  GI50: 19.1 µM (inactive)
[14]
  GI50: 19.4 µM (inactive)
[15]
  GI50: 36.6 µM (inactive)
[16]
  GI50: 36.9 µM (inactive)
[18]
  GI50: 42.4 µM (inactive)
[19]
  GI50: 19.7 µM (inactive)
[20]
  GI50: 16.3 µM (inactive)
[21]
  GI50: 17.9 µM (inactive)
[22]
  GI50: 18.9 µM (inactive)
[23]
  GI50: 37.8 µM (inactive)
[24]
  GI50: 23.9 µM (inactive)
[25]
  GI50: 28.8 µM (inactive)
[26]
  GI50: 13.7 µM (inactive)
[28]
  GI50: 20.6 µM (inactive)
[29]
  GI50: 22 µM (inactive)
[30]
  GI50: > 100 µM (inactive)
[31]
  GI50: 16.8 µM (inactive)
[32]
  GI50: 17.6 µM (inactive)
[33]
  GI50: 15.5 µM (inactive)
[34]
  GI50: 17.8 µM (inactive)
[35]
  GI50: 14.8 µM (inactive)
[37]
  GI50: 63.8 µM (inactive)
[38]
  GI50: 25.9 µM (inactive)
[39]
  GI50: 26.2 µM (inactive)
[40]
  GI50: 37.9 µM (inactive)
[41]
  GI50: 19.2 µM (inactive)
[42]
  GI50: 17.4 µM (inactive)
[43]
  GI50: 74.5 µM (inactive)
[45]
  GI50: 51.4 µM (inactive)
[58]
  GI50: 21.3 µM (inactive)
[46]
  GI50: 25.6 µM (inactive)
[47]
  GI50: 27.2 µM (inactive)
[49]
  GI50: > 10 µM (inactive)
[50]
  GI50: 17.6 µM (inactive)
[51]
  GI50: 26.5 µM (inactive)
[52]
  GI50: 22.4 µM (inactive)
[53]
  GI50: 27.4 µM (inactive)
[54]
  GI50: 19.8 µM (inactive)
[55]
  GI50: 33.9 µM (inactive)
[56]
  GI50: 23.6 µM (inactive)
[57]
  GI50: 33.5 µM (inactive)

## CC(=O)NC1(C(=O)N[C@@H](Cc2ccccc2)C(=O)NC2CCCCC2)Cc2ccc3ccccc3c2-c2c(ccc3ccccc23)C1
[3]
  GI50: 6.37 µM (inactive) and 4.84 µM (inactive)
[59]
  GI50: > 100 µM (inactive)
[7]
  GI50: 6.61 µM and 3.9 µM
[8]
  GI50: 3.94 µM (inactive) and 6.82 µM (inactive)
[9]
  GI50: 4.55 µM (inactive) and 5.27 µM (inactive)
[10]
  GI50: 48.6 µM (inactive) and 32 µM (inactive)
[19]
  GI50: 6.73 µM (inactive) and 4.54 µM (inactive)
[20]
  GI50: 4.48 µM (inactive) and 6.7 µM (inactive)
[22]
  GI50: 14.7 µM (inactive) and 12.6 µM (inactive)
[25]
  GI50: 8.97 µM (inactive) and 15.2 µM (inactive)
[27]
  GI50: 5.02 µM (inactive) and 3.49 µM (inactive)
[32]
  GI50: 9.53 µM (inactive) and 5.89 µM (inactive)
[33]
  GI50: 4.06 µM (inactive) and 7.73 µM (inactive)
[35]
  GI50: 53.2 µM (inactive) and 50.5 µM (inactive)
[36]
  GI50: 6.17 µM (inactive) and 3.41 µM (inactive)
[37]
  GI50: 14.6 µM (inactive) and 21.2 µM (inactive)
[40]
  GI50: 15.3 µM (inactive) and 7.89 µM (inactive)
[42]
  GI50: 8.95 µM (inactive) and 8.73 µM (inactive)
[58]
  GI50: 17.8 µM (inactive) and 25.3 µM (inactive)
[48]
  GI50: 3.03 µM (inactive) and 5.48 µM (inactive)
[50]
  GI50: 26.7 µM (inactive) and 15.6 µM (inactive)
[56]
  GI50: 5.18 µM (inactive) and 3.47 µM (inactive)
